Reference: patent US11040959B2, “Diprovocims: a new and potent class of TLR agonists” (The Scripps Research Institute, priority 2016, dated 2021)
Where two headings read alike, the source gives them in different places.

Tests used:
mouse macrophages = assay: stimulated release of TNF-α from mouse macrophages; assay type: cell-based; conditions: for activity in stimulating TNF-α release from mouse macrophages (in words): tested up to 5 μM where stated
How it was run: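 EC50 derived from dose-response curves for stimulated TNF-α release from mouse macrophages.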

[1] = system: differentiated human THP-1 cells; assay: stimulated release of TNF-α from differentiated human THP-1 cells (ELISA, dose-response); assay type: cell-based
How it was run: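 Human THP-1 cells were PMA-differentiated toward macrophages, and stimulated TNF-α release was measured by ELISA. EC50 values were taken from dose-response curves.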

[2] = Macrophage, Table 3, TNF-α release from mouse macrophages, read-out: EC50 (nM) (mouse)
[3] = Homo sapiens, THP-1, Table 3, TNF-α release from human THP-1 cells, read-out: EC50 (nM) (THP-1)
[4] = Macrophage, Table 7, TNF-α release from mouse macrophages, read-out: EC50 (nM) (mouse)
[5] = Homo sapiens, THP-1, Table 7, TNF-α release from human THP-1 cells, read-out: EC50 (nM) (THP-1)

| EC50 (mouse macrophages; [4]) | EC50 [1, 5] | Compound | also measured |
| --- | --- | --- | --- |
|  |  | O=C(N[C@H]1C[C@@H]1c1ccccc1)[C@@H]1CN(C(=O)c2c(F)c(F)c(C(=O)N3C[C@@H](C(=O)N[C@H]4C[C@@H]4c4ccccc4)[C@H](C(=O)N[C@H]4C[C@@H]4c4ccccc4)C3)c(F)c2F)C[C@H]1C(=O)N[C@H]1C[C@@H]1c1ccccc1 [Compound 60, (3S,3′S,4S,4′S)-1,1′-(Perfluoroterephthaloyl)-bis(N^3,N^4-bis((1S,2R)-2-phenylcyclopropyl)pyrrolidine-3,4-dicarboxamide)] | EC50 (mouse macrophages; [2]): > 5000 nM; EC50 [1, 3]: 110 nM |
|  |  | O=C(N[C@H]1C[C@@H]1c1ccccc1)[C@@H]1CN(C(=O)c2cc(Cl)c(C(=O)N3C[C@@H](C(=O)N[C@H]4C[C@@H]4c4ccccc4)[C@H](C(=O)N[C@H]4C[C@@H]4c4ccccc4)C3)cc2Cl)C[C@H]1C(=O)N[C@H]1C[C@@H]1c1ccccc1 [Compound 61, (3S,3′S,4S,4′S)-1,1′-(2,5-Dichloroterephthaloyl)-bis(N^3,N^4-bis((1S,2R)-2-phenylcyclopropyl)pyrrolidine-3,4-dicarboxamide)] | EC50 (mouse macrophages; [2]): > 5000 nM; EC50 [1, 3]: 360 nM |
|  |  | O=C(N[C@H]1C[C@@H]1c1ccccc1)[C@@H]1CN(C(=O)c2cc(Br)c(C(=O)N3C[C@@H](C(=O)N[C@H]4C[C@@H]4c4ccccc4)[C@H](C(=O)N[C@H]4C[C@@H]4c4ccccc4)C3)cc2Br)C[C@H]1C(=O)N[C@H]1C[C@@H]1c1ccccc1 [Compound 62, (3S,3′S,4S,4′S)-1,1′-(2,5-Dibromoterephthaloyl)-bis(N^3,N^4-bis((1S,2R)-2-phenylcyclopropyl)pyrrolidine-3,4-dicarboxamide)] | EC50 (mouse macrophages; [2]): > 5000 nM; EC50 [1, 3]: 860 nM |
|  |  | Cc1cc(C(=O)N2C[C@@H](C(=O)N[C@H]3C[C@@H]3c3ccccc3)[C@H](C(=O)N[C@H]3C[C@@H]3c3ccccc3)C2)c(C)cc1C(=O)N1C[C@@H](C(=O)N[C@H]2C[C@@H]2c2ccccc2)[C@H](C(=O)N[C@H]2C[C@@H]2c2ccccc2)C1 [Compound 63, (3S,3′S,4S,4′S)-1,1′-(2,5-Dimethylterephthaloyl)-bis(N^3,N^4-bis((1S,2R)-2-phenylcyclopropyl)pyrrolidine-3,4-dicarboxamide)] | EC50 (mouse macrophages; [2]): > 5000 nM; EC50 [1, 3]: > 5000 nM |
| > 5000 nM | > 5000 nM | O=C(NCCc1ccc(F)cc1)[C@@H]1CN(C(=O)C#CC(=O)N2C[C@@H](C(=O)NCCc3ccc(F)cc3)[C@H](C(=O)NCCc3ccc(F)cc3)C2)C[C@H]1C(=O)NCCc1ccc(F)cc1 [Compound 100, (3S,3′S,4S,4′S)-1,1′-(But-2-ynedi-oyl)bis(N^3,N^4-bis(4-fluorophenethyl)pyrrolidine-3,4-dicarboxamide)] |  |
| > 5000 nM | > 5000 nM | O=C(NCCc1ccc(F)cc1)[C@@H]1CN(C(=O)/C=C/C(=O)N2C[C@@H](C(=O)NCCc3ccc(F)cc3)[C@H](C(=O)NCCc3ccc(F)cc3)C2)C[C@H]1C(=O)NCCc1ccc(F)cc1 [Compound 101, (3S,3′S,4S,4′S)-1,1′-Fumaroylbis-(N^3,N^4-bis(4-fluorophnethyl)pyrrolidine-3,4-dicarboxamide)] |  |
| > 5000 nM | > 5000 nM | O=C(NCCc1ccc(F)cc1)[C@@H]1CN(C(=O)C/C=C/CC(=O)N2C[C@@H](C(=O)NCCc3ccc(F)cc3)[C@H](C(=O)NCCc3ccc(F)cc3)C2)C[C@H]1C(=O)NCCc1ccc(F)cc1 [Compound 102, (3S,3′S,4S,4′S)-1,1′-((E)-Hex-3-enedioyl)bis-(N^3,N^4-bis(4-fluorophenethyl)pyrrolidine-3,4-dicarboxamide)] |  |
| > 5000 nM | > 5000 nM | O=C(NCCc1ccc(F)cc1)[C@@H]1CN(C(=O)c2cccc(C(=O)N3C[C@@H](C(=O)NCCc4ccc(F)cc4)[C@H](C(=O)NCCc4ccc(F)cc4)C3)c2)C[C@H]1C(=O)NCCc1ccc(F)cc1 [Compound 103, (3S,3′S,4S,4′S)-1,1′-Isophthaloyl-bis-(N^3,N^4-bis(4-fluorophenethyl)pyrrolidine-3,4-dicarboxamide)] |  |
| > 5000 nM | > 5000 nM | O=C(NCCc1ccc(F)cc1)[C@@H]1CN(C(=O)c2ccc(-c3ccc(C(=O)N4C[C@@H](C(=O)NCCc5ccc(F)cc5)[C@H](C(=O)NCCc5ccc(F)cc5)C4)cc3)cc2)C[C@H]1C(=O)NCCc1ccc(F)cc1 [Compound 104, (3S,3′S,4S,4′S)-1,1′-([1,1′-Biphenyl]-4,4′-dicarbonyl)bis(N^3,N^4-bis(4-fluoro-phenethyl)-pyrrolidine-3,4-dicarboxamide)] |  |
|  |  | O=C(NCCc1ccc(F)cc1)C1CN(C(=O)COCC(=O)N2CC(C(=O)NCCc3ccc(F)cc3)C(C(=O)NCCc3ccc(F)cc3)C2)CC1C(=O)NCCc1ccc(F)cc1 [Compound 105, (3S,3′S,4S,4′S)-1,1′-(2,2′-Oxybis(acetyl))bis-(N^3,N^4-bis(4-fluorophenethyl)pyrrolidine-3,4-dicarboxamide)] | EC50 (mouse macrophages; Table 7, TNF-α release from mouse macrophages, read-out: EC50 (nM) (mouse)): > 5000 nM; EC50 ([1]; Table 7, TNF-α release from human THP-1 cells, read-out: EC50 (nM) (THP-1)): > 5000 nM |
| > 5000 nM | > 5000 nM | O=C(NCCc1ccc(F)cc1)[C@@H]1CN(C(=O)[C@@H]2CCC[C@@H](C(=O)N3C[C@@H](C(=O)NCCc4ccc(F)cc4)[C@H](C(=O)NCCc4ccc(F)cc4)C3)C2)C[C@H]1C(=O)NCCc1ccc(F)cc1 [Compound 106, (3S,3′S,4S,4′S)-1,1′-((1R,3R)-Cyclohexane-1,3-dicarbonyl)bis(N^3,N^4-bis(4-fluorophenethyl)-pyrrolidine-3,4-dicarboxamide)] |  |
| > 5000 nM | > 5000 nM | O=C(NCCc1ccc(F)cc1)[C@@H]1CN(C(=O)[C@H]2CC[C@H](C(=O)N3C[C@@H](C(=O)NCCc4ccc(F)cc4)[C@H](C(=O)NCCc4ccc(F)cc4)C3)CC2)C[C@H]1C(=O)NCCc1ccc(F)cc1 [Compound 107, (3S,3′S,4S,4′S)-1,1′-((1S,4S)-Cyclohexane-1,4-dicarbonyl)bis(N^3,N^4-bis(4-fluorophenethyl)-pyrrolidine-3,4-dicarboxamide)] |  |
| > 5000 nM | > 5000 nM | O=C(NCCc1ccc(F)cc1)[C@@H]1CN(C(=O)[C@H]2CC[C@@H](C(=O)N3C[C@@H](C(=O)NCCc4ccc(F)cc4)[C@H](C(=O)NCCc4ccc(F)cc4)C3)CC2)C[C@H]1C(=O)NCCc1ccc(F)cc1 [Compound 108, (3S,3′S,4S,4′S)-1,1′-((1R,4R)-Cyclohexane-1,4-dicarbonyl)bis(N^3,N^4-bis(4-fluorophenethyl)-pyrrolidine-3,4-dicarboxamide)] |  |
| > 5000 nM | > 5000 nM | O=C(NCCc1ccc(F)cc1)[C@@H]1CN(C(=O)c2ccc3cc(C(=O)N4C[C@@H](C(=O)NCCc5ccc(F)cc5)[C@H](C(=O)NCCc5ccc(F)cc5)C4)ccc3c2)C[C@H]1C(=O)NCCc1ccc(F)cc1 [Compound 109, (3S,3′S,4S,4′S)-1,1′-(Naphthalene-2,6-dicarbonyl)-bis(N^3,N^4-bis(4-fluorophenethyl)-pyrrolidine-3,4-dicarboxamide)] |  |
| > 5000 nM | 130 nM | O=C(NCCc1ccc(F)cc1)[C@@H]1CN(C(=O)c2ccc(C(=O)N3C[C@@H](C(=O)NCCc4ccc(F)cc4)[C@H](C(=O)NCCc4ccc(F)cc4)C3)c(O)c2)C[C@H]1C(=O)NCCc1ccc(F)cc1 [Compound 110, (3S,3′S,4S,4′S)-1,1′-(2-Hydroxy-terephthaloyl)-bis(N^3,N^4-bis(4-fluorophenethyl)-pyrrolidine-3,4-dicarboxamide)] |  |
|  |  | O=C(NCCc1ccc(F)cc1)[C@@H]1CN(C(=O)c2ccc(C(=O)N3C[C@@H](C(=O)N[C@H]4C[C@@H]4c4ccccc4)[C@H](C(=O)N[C@H]4C[C@@H]4c4ccccc4)C3)cc2)C[C@H]1C(=O)NCCc1ccc(F)cc1 [Compound 114, (3S,4S)-1-(4-((3S,4S)-3,4-Bis(((1S,2R)-2-phenylcyclopropyl)carbamoyl)-pyrrolidine-1-carbonyl)benzoyl)—N^3,N^4-bis(4-fluorophenethyl)-pyrrolidine-3,4-dicarboxamide] | activity in stimulating TNF-α release from mouse macrophages (in words) (mouse macrophages): active; activity in stimulating TNF-α release from human THP-1 cells (in words) ([1]; tested up to 5 μM where stated): active |
|  |  | O=C(NCCc1ccc(F)cc1)[C@H]1CN(C(=O)c2ccc(C(=O)N3C[C@@H](C(=O)N[C@H]4C[C@@H]4c4ccccc4)[C@H](C(=O)N[C@H]4C[C@@H]4c4ccccc4)C3)cc2)C[C@@H]1C(=O)NCCc1ccc(F)cc1 [Compound 115] | activity in stimulating TNF-α release from mouse macrophages (in words) (mouse macrophages): inactive; fold less active than 114 in human THP-1 cells ([1]; human THP-1 cells): 5 fold |
|  |  | O=C(NC1C[C@@H]1c1ccc(F)cc1)[C@@H]1CN(C(=O)c2ccc(C(=O)N3C[C@@H](C(=O)NC4C[C@@H]4c4ccc(F)cc4)[C@H](C(=O)NC4C[C@@H]4c4ccc(F)cc4)C3)cc2)C[C@H]1C(=O)NC1C[C@@H]1c1ccc(F)cc1 (stereo partly drawn) [Compound 118, (3S,3′S,4S,4′S)-1,1′-Terephthaloyl-bis(N^3,N^4-bis-((1S,2R)-2-(4-fluorophenyl)cyclopropyl)pyrrolidine-3,4-dicarboxamide)] | EC50 (mouse macrophages; Mus musculus, Macrophage, read-out: EC50, stimulated release of TNF-α from mouse macrophages): 1.2 nM; EC50 ([1]; Homo sapiens, THP-1, running text, read-out: EC50, stimulated release of TNF-α from differentiated human THP-1 cells): 0.13 nM |
|  |  | CCCCCCCCCCCCCCCCNC(=O)[C@@H]1CCN(C(=O)c2ccc(C(=O)N3C[C@@H](C(=O)N[C@H]4C[C@@H]4c4ccccc4)[C@H](C(=O)N[C@H]4C[C@@H]4c4ccccc4)C3)cc2)C1 [Compound 125, (3S,4S)-1-(4-((R)-3-(Hexadecylcarbamoyl)-pyrrolidine-1-carbonyl)benzoyl)-N^3,N^4-bis((1S,2R)-2-phenylcyclopropyl)pyrrolidine-3,4-dicarboxamide] | EC50 (mouse macrophages; Macrophage, table of 125-132 (one lipid side chain, R and S), mouse macrophages, read-out: EC50 (nM) (mouse)): > 5000 nM; EC50 ([1]; table of 125-132 (one lipid side chain, R and S), human THP-1 cells, read-out: EC50 (nM) (THP-1)): 15 nM |
